Measurements reported in US9034368B2 (PUREPHARM INC., priority 2002, dated 2015).

Columns and labels:
[1] = system: excessive sweating; settings: patient 3: topical application (1% pads and 1% spray)
[2] = Hay 1982; roll-on solution, distilled water; concentrations above 2%; cited from earlier work
[3] = system: hyperhidrosis and gustatory sweating; settings: cited from earlier work

In the case of C[N+]1(C)CCC(OC(=O)C(O)(c2ccccc2)C2CCCC2)C1 (stereo not shown) [glycopyrrolate], the side effects [1] is listed as “not experienced any side effects”, the crystallisation from solution [2] is listed as “Glycopyrrolate crystalized out” and the “efficacy of topical concentration” value ([3]; 0.1% concentration, Hays 1978) is listed as “ineffective”. For the same compound, the “efficacy of solution versus cream” value ([3]; Hay 1982, 2 & 4% HEB cream base) was “Solution worked better than”, the relief of sweating ([3]; May 1989, 0.5 & 2.0% roll-on, 2.0% cream, almost all patients) was “total or partial relief. Placebo” and the efficacy ([3]; Seukeran 1998, 0.50% aqueous solution) was “Worked well”. For the same compound, the “concentration after which mild side effects begin to present themselves” value ([3]; topical, Hays 1978) was over 4%.
